Experiments:
Alternaria solani = experiment: Mycelial growth test; format: cell-based; conditions: Alternaria solani, 72 h, AS, read-out: Percent Fungus Growth Inhibition
Erysiphe polygoni = experiment: Spore germination test; format: cell-based; conditions: EP, 48 hours
Summary of the method: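 Compound was delivered in acetone into water agar at final 40, 10, 2.5 and 1 ppm. Alternaria solani and Botrytis cinerea spores were applied as sterile-water suspensions, while Erysiphe polygoni and Uromyces phaseoli spores were brushed on from infected leaves. After 48 h at 24° C., percentage germination was converted to a rating.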

Compound | inhibition at 5 ppm (Alternaria solani) [%] | inhibition at 10 ppm (Alternaria solani) [%] | inhibition at 20 ppm (Alternaria solani) [%] | inhibition at 40 ppm (Alternaria solani) [%] | Spore Germination Rating (Erysiphe polygoni; 1.0 ppm) | Spore Germination Rating (Erysiphe polygoni; 2.5 ppm) | Spore Germination Rating (Erysiphe polygoni; 10 ppm) | Spore Germination Rating (Erysiphe polygoni; 40 ppm)
O=c1c(Cl)nsnc1Oc1cccc(Cl)c1 [Compound 13, 3-chloro-5-(3-chlorophenoxy)-4H--1,2,6-thiadiazin-4-one] | 45 | 59 | 86 | 100 | 4 (80-100) | 2 (40-60) | 0 (0-10) | 0 (0-10)
Cc1cccc(C)c1Oc1nsnc(Cl)c1=O [Compound 24, 3-chloro-5-(2,6-dimethylphenoxy)-4H--1,2,6-thiadiazin-4-one] | 100 | 88 | 100 | 100 | 3 (60-80) | 1 (10-40) | 0 (0-10) | 0 (0-10)
O=c1c(Cl)nsnc1Oc1ccccc1 [Compound 2, 3-chloro-5-phenoxy-4H--1,2,6-thiadiazin-4-one] | 75 | 100 | 100 | 100 | 4 (80-100) | 4 (80-100) | 3 (60-80) | 1 (10-40)
Cc1cc(Oc2nsnc(Cl)c2=O)cc(C)c1Br [Compound 60, 3-[(4-bromo-3,5-dimethyl)-phenoxy]-5-chloro-4H--1,2,6-thiadiazin-4-one] | 33 | 43 | 52 | 52 | 2 (40-60) | 1 (10-40) | 1 (10-40) | 0 (0-10)
Cc1ccc(Cl)c(Oc2nsnc(Cl)c2=O)c1 [Compound 56, 3-chloro-5-[(2-chloro-5-methyl)phenoxy]-4H--1,2,6-thiadiazin-4-one] | 52 | 71 | 81 | 100 | 4 (80-100) | 2 (40-60) | 0 (0-10) | 0 (0-10)
Cc1cc(C)cc(Oc2nsnc(Cl)c2=O)c1 [Compound 25, 3-chloro-5-(3,5-dimethylphenoxy)-4H--1,2,6-thiadiazin-4-one] | 69 | 75 | 81 | 88 | 4 (80-100) | 4 (80-100) | 0 (0-10) | 0 (0-10)
Nc1ccc(Oc2nsnc(Cl)c2=O)cc1 [Compound 26, 5-(4-aminophenoxy)-3-chloro-4H--1,2,6-thiadiazin-4-one] | 60 | 80 | 100 | 100 | 4 (80-100) | 4 (80-100) | 4 (80-100) | 4 (80-100)
O=c1c(Cl)nsnc1Oc1cccc2ccccc12 [Compound 32, 3-chloro-5(1-naphthoxy)-4H-1,2,6-thiadiazin-4-one] | 58 | 58 | 88 | 92 | 2 (40-60) | 2 (40-60) | 0 (0-10) | 0 (0-10)
O=C(Nc1ccccc1)Nc1ccc(Oc2nsnc(Cl)c2=O)cc1 [Compound 29, 3-chloro-5-[4-(3-phenylureido)-phenoxy]-4H--1,2,6-thiadiazin-4-one] | 47 | 30 | 37 | 47 | 4 (80-100) | 4 (80-100) | 4 (80-100) | 1 (10-40)
O=c1c(Cl)nsnc1Oc1ccccc1Br [Compound 34, 3-chloro-5-(2-bromophenoxy)-4H-1,2,6,-thiadiazin-4-one] | 100 | 100 | 100 | 100 | 0 (0-10) | 2 (40-60) | 0 (0-10) | 0 (0-10)
O=c1c(Cl)nsnc1Oc1ccc(Br)cc1 [Compound 15, 3-chloro-5-(4-bromophenoxy)-4H--1,2,6-thiadiazin-4-one] | 54 | 66 | 66 | 75 | 4 (80-100) | 1 (10-40) | 0 (0-10) | 0 (0-10)
O=c1c(Cl)nsnc1Oc1c(Cl)c(Cl)c(Cl)c(Cl)c1Cl [Compound 31, 3-chloro-5-(pentachlorophenoxy)-4H--1,2,6-thiadiazine-4-one] | 48 | 60 | 48 | 67 | 0 (0-10) | 0 (0-10) | 1 (10-40) | 0 (0-10)
Cc1ccc(Oc2nsnc(Cl)c2=O)c(C)c1 [Compound 23, 3-chloro-5-(2,4-dimethylphenoxy)-4H--1,2,6-thiadiazin-4-one] | 63 | 81 | 100 | 100 | 4 (80-100) | 4 (80-100) | 3 (60-80) | 1 (10-40)
COc1cc(Oc2nsnc(Cl)c2=O)cc(OC)c1C(C)=O [Compound 61, 3-[(4-acetyl-3,5-dimethoxy)-phenoxy]-5-chloro-4H--1,2,6-thiadiazin-4-one] | 33 | 29 | 25 | 42 | 1 (10-40) | 1 (10-40) | 1 (10-40) | 0 (0-10)
Cc1ccc(Oc2nsnc(Cl)c2=O)c(Br)c1 [Compound 57, 3-[(2-bromo-4-methyl)-phenoxy]-5-chloro-4H--1,2,6-thiadiazin-4-one] | 71 | 90 | 90 | 90 | 4 (80-100) | 0 (0-10) | 0 (0-10) | 0 (0-10)
CC(=O)Nc1ccc(Oc2nsnc(Cl)c2=O)cc1 [Compound 8, 5-(4-acetylaminophenoxy)-3-chloro-4H--1,2,6-thiadiazin-4-one] | 38 | 41 | 69 | 86 | 4 (80-100) | 4 (80-100) | 4 (80-100) | 2 (40-60)
CSc1ccc(Oc2nsnc(Cl)c2=O)cc1 [Compound 39, 3-chloro-5-[(4-methylthio)phenoxy]-4H-1,2,6,-thiadiazin-4-one] | 42 | 33 | 42 | 54 | 2 (40-60) | 1 (10-40) | 2 (40-60) | 0 (0-10)
O=C(O)c1ccc(Oc2nsnc(Cl)c2=O)cc1 [Compound 50, 3-(4-carboxyphenoxy)-5-chloro-4H--1,2,6-thiadiazin-4-one] | 33 | 21 | 54 | 63 | 4 (80-100) | 4 (80-100) | 4 (80-100) | 2 (40-60)
CNC(=O)Nc1ccc(Oc2nsnc(Cl)c2=O)cc1 [Compound 28, 3-chloro-5-[4-(3-methylureido)-phenoxy]-4H--1,2,6-thiadiazin-4-one] | 40 | 47 | 50 | 70 | 4 (80-100) | 4 (80-100) | 4 (80-100) | 4 (80-100)
